Entries after “also recorded” stand apart in the source; their conditions may differ. Each block holds one compound with its values, some of them ahead of it.
Tests used:
[1] = Serum pharmacokinetic analysis of rIgG1 (anti-IgG2a) antibody conjugates; format: in vivo, mice; conditions: intravenous 10 μg/mouse, compared to Compound I-7
Procedure: A pharmacokinetic analysis of the rIgG1 (anti-IgG2a) antibody conjugates described in the previous example was performed in mice. In particular, […] mice were intravenously administered each rIgG1 antibody conjugate at 10 μg/mouse (5 mice per group). Blood was collected at 0.5, 1, 2, 6, and 24 hours and serum rIgG1 was analyzed using an ELISA kit (Abcam) according to the manufacturer's instructions. Samples were run across 3 different plates with unconjugated rIgG1 controls (UNLB-anti-IgG2a rIgG1) included on all 3 plates. FIGS. 8A-8C show the serum levels of anti-IgG2a conjugated to Compound 1-7 (dar8) and (dar4) (FIG. 8A), anti-IgG2a conjugated to Compound I-10 and anti-IgG2a conjugated to Compound I-11 (FIG. 8B), and anti-IgG2a conjugated to Compound I-9 and anti-IgG2a conjugated to Compound I-12 (FIG. 8C) over time.

Jurkat cells [2] = assay: Uptake of IgG2a-Alexa488 into Jurkat cells; format: cell-based; conditions: anti-IgG2a conjugates, 1 hour and 24 hours
Procedure: The anti-IgG2a conjugates were bound to IgG2a-Alexa488, as follows: equal molar ratios of anti-IgG2a and IgG2a-Alexa488 were added in tissue culture media for 30 minutes at room temperature. The resulting anti-IgG2a:IgG2a antibody-Alexa488 compositions were added to Jurkat cells (100 k cells/50 ul per well, n=2), and Alexa488 fluorescence levels were measured (via Alexa488 measurement) at 1 hour and 24 hours by flow cytometry. As the fluorescently labelled target (IgG2a antibody) accumulates in cells, the fluorescence presents a way to measure total intracellular uptake by cells over time.

CI-M6PR [3] = target: T1, CI-M6PR (Homo sapiens, UniProt P11717); assay: Human CI-M6PR binding assay (ELISA); set-up: purchased R&D 6418-GR-050; conditions: for binding affinity to M6PR, rank among the conjugates tested: matuzumab conjugates (FIGS. 7A-7F), I-7 at d8 (DAR 8), I-11 at d4 (DAR 4)
Procedure: Nunc black solid bottom MaxiSorp plates were allowed to incubate overnight at 4° C. coated with 1 μg/mL of recombinant human CI-M6PR protein (R&D, 6418-GR-050) in 50 μL PBS. The next day, coating was decanted and plates were washed 3× with PBS. Wells were blocked with 350 μL of 3% BSA-PBS for 1 hour at room temperature. […] 50 μL of diluted conjugates were added to the plate and allowed to incubate at room temperature for 2 hours. After incubation, solutions in plate were decanted and washed with 350 μL of 0.05% PBS-Tween20 three times, drying the plate each wash on a clean paper towel. 50 μL of peroxidase AffiniPure Mouse Anti-Human IgG (Jackson Immuno, 209-035-088) diluted in 3% BSA-PBS to […] was added to the plate and allowed to incubate for 1 hour at room temperature in the dark. After incubation, solutions in plate were decanted and washed with 350 μL of 0.05% PBS-Tween20 3 times, drying the plate each wash on a clean paper towel. […] 50 μL of QuantaBlu solution was added to wells and allowed to incubate for 5-10 minutes at room temperature. After incubation, plates were read on a Perkin Elmer EnVision using photometric 340 and Umbelliferone 460 filter sets for excitation and emission, respectively. Data analysis and non-linear curve-fitting was performed using GraphPad Prism.
Target sequence in this assay (P11717 41-1365 limits assumed): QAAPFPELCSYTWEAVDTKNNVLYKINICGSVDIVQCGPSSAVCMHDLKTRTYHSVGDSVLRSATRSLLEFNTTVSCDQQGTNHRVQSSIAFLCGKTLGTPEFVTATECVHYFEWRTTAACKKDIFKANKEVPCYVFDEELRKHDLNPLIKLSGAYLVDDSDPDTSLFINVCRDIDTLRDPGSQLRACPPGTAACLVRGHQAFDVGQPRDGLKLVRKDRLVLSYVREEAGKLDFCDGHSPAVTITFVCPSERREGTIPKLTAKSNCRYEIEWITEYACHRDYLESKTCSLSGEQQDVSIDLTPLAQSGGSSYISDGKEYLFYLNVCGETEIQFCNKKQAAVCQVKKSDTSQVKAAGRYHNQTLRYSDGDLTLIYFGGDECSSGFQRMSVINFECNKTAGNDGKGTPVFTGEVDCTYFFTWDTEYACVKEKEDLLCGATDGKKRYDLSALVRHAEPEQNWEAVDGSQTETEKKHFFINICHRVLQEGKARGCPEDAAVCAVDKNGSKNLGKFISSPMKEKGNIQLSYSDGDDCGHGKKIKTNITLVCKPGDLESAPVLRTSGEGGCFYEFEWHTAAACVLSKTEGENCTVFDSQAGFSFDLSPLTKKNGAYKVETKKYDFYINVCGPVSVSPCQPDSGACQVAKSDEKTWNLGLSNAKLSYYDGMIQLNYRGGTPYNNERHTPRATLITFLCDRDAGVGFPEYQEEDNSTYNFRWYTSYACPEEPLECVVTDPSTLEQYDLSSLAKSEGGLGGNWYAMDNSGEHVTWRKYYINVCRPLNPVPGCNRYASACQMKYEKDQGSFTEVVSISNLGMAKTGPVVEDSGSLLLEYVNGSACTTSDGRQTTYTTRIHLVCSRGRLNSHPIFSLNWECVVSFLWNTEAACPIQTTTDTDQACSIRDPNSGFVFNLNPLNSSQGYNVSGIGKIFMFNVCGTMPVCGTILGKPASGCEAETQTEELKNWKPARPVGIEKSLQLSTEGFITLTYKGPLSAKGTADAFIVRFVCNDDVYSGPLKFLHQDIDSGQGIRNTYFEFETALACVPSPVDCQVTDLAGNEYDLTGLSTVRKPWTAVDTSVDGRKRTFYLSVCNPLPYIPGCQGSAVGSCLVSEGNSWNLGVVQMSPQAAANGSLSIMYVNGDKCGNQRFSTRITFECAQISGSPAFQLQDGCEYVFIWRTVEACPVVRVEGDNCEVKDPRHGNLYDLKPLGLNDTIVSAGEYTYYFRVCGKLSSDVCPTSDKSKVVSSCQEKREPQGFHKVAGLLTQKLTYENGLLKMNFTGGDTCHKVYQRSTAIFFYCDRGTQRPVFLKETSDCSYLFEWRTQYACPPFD

Jurkat cells [4] = assay: Uptake of IgE-Alexa488 target protein in Jurkat cells; format: cell-based
Procedure: The omalizumab conjugates of Example 142 were bound to IgE-Alexa488 (prepared according to Example 144), as follows: equal molar ratios of omalizumab (anti-IgE) conjugate and IgE-Alexa488 were added in tissue culture media for 30 minutes at room temperature. The resulting anti-IgE conjugate:IgE antibody-Alexa488 compositions were added to Jurkat cells (100 k cells/50 ul per well, n=2), and Alexa488 fluorescence levels in the cells were measured at 1 hour by flow cytometry. As the fluorescently labelled target (IgE antibody) accumulates in cells, the fluorescence presents a way to measure total intracellular uptake by cells over time.

M6PR (Domains 1-9) = target: T2, M6PR (Domains 1-9) (Homo sapiens, UniProt P11717); assay: General M6PR binding assay (fluorescence polarization); conditions: 100 nM M6PR, 1 nM probe, 2 hr incubation
T2 construct: with 100 nM M6PR (Domains 1-9, R&D Systems) and 1 nM probe; purchased R&D Systems
Procedure: M6PR binding was measured in black 96-well plates using a fluorescence polarization assay. A fluorescent probe consisting of a reference M6Pn ligand linked to Cy5 was synthesized. Test compounds were resuspended in DMSO and 3-fold serial dilutions were made at 100× final concentrations. Binding reactions were conducted in 100 μl final volume in 20 mM HEPES (pH 7.5) 100 mM NaCl 0.015% o Tween-20 1% DMSO with 100 nM M6PR (Domains 1-9, R&D Systems) and 1 nM probe. Fluorescence polarization was measured using λex=620 nm, λem=688 nm on an Envision plate reader (Perkin Elmer) after 2 hr incubation time. Dose responses were conducted in duplicate and normalized to the response with DMSO (high) and 1 μM reference compound (low) on each plate. IC50 values were determined by fitting to 4-parameter curves in GraphPad Prism.

CI-M6PR [5] = target: T1, CI-M6PR; assay: CI-M6PR SPR binding assay; conditions: omalizumab conjugates at DAR of about 4; relative to 529 and 552
Procedure: The CI-M6PR binding affinities of omalizumab (anti-IgE) conjugates of Table 19 were also assessed via SPR binding assay. […] At equivalent DAR (m) values, the koff rate of the omalizumab (anti-IgE) conjugates was 552>529>570.
Target sequence in this assay (P11717 41-2491): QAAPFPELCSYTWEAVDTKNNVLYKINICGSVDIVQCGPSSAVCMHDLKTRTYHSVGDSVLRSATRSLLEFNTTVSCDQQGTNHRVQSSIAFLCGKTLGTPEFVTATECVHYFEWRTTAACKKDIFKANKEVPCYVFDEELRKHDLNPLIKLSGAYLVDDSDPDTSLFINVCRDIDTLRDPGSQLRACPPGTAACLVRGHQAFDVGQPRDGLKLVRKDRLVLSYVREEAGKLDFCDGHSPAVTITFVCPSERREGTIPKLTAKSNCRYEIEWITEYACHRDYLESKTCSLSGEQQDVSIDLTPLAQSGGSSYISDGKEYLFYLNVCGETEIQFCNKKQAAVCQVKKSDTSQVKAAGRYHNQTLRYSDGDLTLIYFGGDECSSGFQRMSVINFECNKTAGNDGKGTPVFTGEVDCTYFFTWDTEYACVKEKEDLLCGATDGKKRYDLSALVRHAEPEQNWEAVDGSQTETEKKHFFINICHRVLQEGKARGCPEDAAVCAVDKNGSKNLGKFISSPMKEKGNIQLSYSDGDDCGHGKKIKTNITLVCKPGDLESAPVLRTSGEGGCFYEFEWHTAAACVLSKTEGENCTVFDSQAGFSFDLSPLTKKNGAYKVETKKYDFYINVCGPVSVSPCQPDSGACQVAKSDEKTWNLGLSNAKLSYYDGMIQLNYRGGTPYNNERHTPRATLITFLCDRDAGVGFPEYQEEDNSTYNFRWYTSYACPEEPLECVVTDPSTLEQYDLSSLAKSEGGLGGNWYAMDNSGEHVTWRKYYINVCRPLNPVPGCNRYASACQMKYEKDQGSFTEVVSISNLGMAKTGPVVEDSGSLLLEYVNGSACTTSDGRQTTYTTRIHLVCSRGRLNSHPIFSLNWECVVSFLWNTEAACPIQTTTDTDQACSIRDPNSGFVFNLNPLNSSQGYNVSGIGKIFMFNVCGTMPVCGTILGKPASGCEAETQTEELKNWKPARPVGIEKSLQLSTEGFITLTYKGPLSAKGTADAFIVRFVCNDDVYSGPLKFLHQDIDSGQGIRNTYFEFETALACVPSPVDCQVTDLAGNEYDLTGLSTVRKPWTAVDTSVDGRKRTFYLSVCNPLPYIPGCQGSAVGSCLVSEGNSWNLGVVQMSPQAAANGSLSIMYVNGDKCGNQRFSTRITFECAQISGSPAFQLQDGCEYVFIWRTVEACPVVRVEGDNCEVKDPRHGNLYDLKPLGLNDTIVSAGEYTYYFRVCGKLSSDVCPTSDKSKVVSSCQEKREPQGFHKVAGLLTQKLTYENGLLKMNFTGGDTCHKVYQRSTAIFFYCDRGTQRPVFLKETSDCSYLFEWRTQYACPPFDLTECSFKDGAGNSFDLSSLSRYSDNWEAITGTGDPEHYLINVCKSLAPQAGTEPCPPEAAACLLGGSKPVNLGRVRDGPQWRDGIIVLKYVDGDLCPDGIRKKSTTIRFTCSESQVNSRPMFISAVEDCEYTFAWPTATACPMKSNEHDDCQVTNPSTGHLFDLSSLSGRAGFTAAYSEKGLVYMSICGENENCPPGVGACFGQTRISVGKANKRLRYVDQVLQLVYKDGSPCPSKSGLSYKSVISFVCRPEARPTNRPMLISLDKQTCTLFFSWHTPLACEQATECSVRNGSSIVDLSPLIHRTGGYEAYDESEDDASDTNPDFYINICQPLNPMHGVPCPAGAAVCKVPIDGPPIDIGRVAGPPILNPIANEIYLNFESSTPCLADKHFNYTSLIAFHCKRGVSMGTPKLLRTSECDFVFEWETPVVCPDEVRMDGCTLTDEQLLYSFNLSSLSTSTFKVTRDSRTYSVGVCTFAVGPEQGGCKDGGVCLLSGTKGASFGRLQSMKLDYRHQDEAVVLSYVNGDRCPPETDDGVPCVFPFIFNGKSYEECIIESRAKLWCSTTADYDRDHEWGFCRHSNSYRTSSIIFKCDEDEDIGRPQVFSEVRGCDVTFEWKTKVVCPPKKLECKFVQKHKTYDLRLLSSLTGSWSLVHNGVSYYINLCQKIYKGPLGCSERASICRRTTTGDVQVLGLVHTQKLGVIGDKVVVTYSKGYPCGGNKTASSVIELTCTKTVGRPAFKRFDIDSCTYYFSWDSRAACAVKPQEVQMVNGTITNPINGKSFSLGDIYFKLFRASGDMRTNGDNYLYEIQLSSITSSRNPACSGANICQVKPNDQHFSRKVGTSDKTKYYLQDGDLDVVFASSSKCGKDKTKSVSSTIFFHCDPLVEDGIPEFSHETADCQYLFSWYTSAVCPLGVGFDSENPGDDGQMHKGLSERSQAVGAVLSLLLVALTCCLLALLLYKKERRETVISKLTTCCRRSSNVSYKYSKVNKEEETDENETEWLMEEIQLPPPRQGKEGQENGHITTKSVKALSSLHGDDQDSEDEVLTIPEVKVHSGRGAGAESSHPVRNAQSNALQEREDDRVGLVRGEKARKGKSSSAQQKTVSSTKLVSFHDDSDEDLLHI

[6] = omalizumab conjugates of Table 15B, Jurkat cells, 1 hour (FIG. 18-21)
[7] = omalizumab conjugates of Table 15A, Jurkat cells, 1 hour (FIG. 15-17)
[8] = omalizumab conjugates of Table 19, Jurkat cells (FIG. 23)

T2 sequence (P11717 41-1365 limits assumed): as the sequence (P11717 41-1365 limits assumed) above

SMILES: O=C(CCOCCn1cc(CCO[C@H]2O[C@H](CCP(=O)(O)O)[C@@H](O)[C@H](O)[C@@H]2O)nn1)Oc1c(F)c(F)c(F)c(F)c1F [Compound I-11]
half-life in mice [1]: longer half-life
intracellular uptake of IgG2a-Alexa488 (Jurkat cells [2]): sufficiently robust uptake
binding affinity to M6PR compared to Compound I-7 (CI-M6PR [3]; conjugates of ligand linkers): weaker binding affinity

SMILES: O=C(CCOCCn1cc(CCO[C@H]2O[C@H](CCP(=O)(O)O)[C@@H](O)[C@H](O)[C@@H]2O)nn1)Oc1c(F)c(F)c(F)c(F)c1F [605 (I-11)]
binding affinity to M6PR, rank among the conjugates tested (CI-M6PR [3]): lowest binding affinity

SMILES: CO[C@H]1O[C@H](COCCCCCc2cn(CCOCCOCCOCCOCCC(=O)Oc3c(F)c(F)c(F)c(F)c3F)nn2)[C@@H](O)[C@H](O)[C@@H]1O[C@H]1O[C@H](CCP(=O)(O)O)[C@@H](O)[C@H](O)[C@@H]1O [Compound 659]
cellular uptake activity of Alexa488 labeled-target IgE (Jurkat cells [4]; [6]): potent and comparable activity

SMILES: CO[C@H]1C[C@H](c2cn(CCOCCOCCOCCOCCOCCOCCC(=O)Oc3c(F)c(F)c(F)c(F)c3F)nn2)[C@@H](O)[C@H](O)[C@@H]1O[C@H]1O[C@H](CCP(=O)(O)O)[C@@H](O)[C@H](O)[C@@H]1O [Compound 660]
cellular uptake activity of Alexa488 labeled-target IgE (Jurkat cells [4]; [6]): potent and comparable activity

SMILES: O=C(CCOCCOCCOCCN(CCOCCOCCOCCn1cc(CCO[C@H]2O[C@H](CCP(=O)(O)O)[C@@H](O)[C@H](O)[C@@H]2O)nn1)CCOCCOCCOCCn1cc(CCO[C@H]2O[C@H](CCP(=O)(O)O)[C@@H](O)[C@H](O)[C@@H]2O)nn1)Oc1c(F)c(F)c(F)c(F)c1F [Compound 716]
cellular uptake activity of Alexa488 labeled-target IgE (Jurkat cells [4]; [7]): inferior uptake

IC50 (M6PR (Domains 1-9)): 100 to 500 nM
SMILES: O=C(NCCCCc1cn(-c2cccnc2)nn1)Nc1ccc(O[C@H]2O[C@H](CCP(=O)(O)O)[C@@H](O)[C@H](O)[C@@H]2O)cc1 [Compound P2]

IC50 (M6PR (Domains 1-9)): 100 to 500 nM
SMILES: O=C(NCCCCc1cn(-c2cccnc2)nn1)Nc1ccc(O[C@@H]2O[C@H](CCP(=O)(O)O)[C@@H](O)[C@H](O)[C@@H]2O)cc1 [Compound P1]

SMILES: O=C(NCCCCc1cn(CCOCCOCCOCCOCCC(=O)Oc2c(F)c(F)c(F)c(F)c2F)nn1)Nc1ccc(S[C@@H]2O[C@H](CCP(=O)(O)O)[C@@H](O)[C@H](O)[C@@H]2O)cc1 [Compound 570]
cellular uptake activity of Alexa488 labeled-target IgE (Jurkat cells [4]; [6]): superior activity
cellular uptake activity of Alexa488 labeled-target IgE (Jurkat cells [4]; [8]): superior activity
Kd (CI-M6PR [5]): superior Kd

SMILES: O=C(CCOCCOCCOCCOCCn1cc(CCCCNC(=S)Nc2ccc(O[C@H]3O[C@H](CCP(=O)(O)O)[C@@H](O)[C@H](O)[C@@H]3O)cc2)nn1)Oc1c(F)c(F)c(F)c(F)c1F [520 (I-7)]
binding affinity to M6PR, rank among the conjugates tested (CI-M6PR [3]): highest

SMILES: O=C(NCCCCc1cn(CCOCCOCCOCCOCCC(=O)Oc2c(F)c(F)cc(F)c2F)nn1)Nc1ccc(O[C@H]2O[C@H](CCP(=O)(O)O)[C@@H](O)[C@H](O)[C@@H]2O)cc1 [Compound 558]
cellular uptake activity of Alexa488 labeled-target IgE (Jurkat cells [4]; [7]): active in this assay, although less active

SMILES: O=C(NCCCCc1cn(CCOCCOCCOCCOCCC(=O)Oc2c(F)c(F)c(F)c(F)c2F)nn1)Nc1ccc(O[C@H]2C[C@H](CCP(=O)(O)O)[C@@H](O)[C@H](O)[C@@H]2O)cc1 [Compound 665]
cellular uptake activity of Alexa488 labeled-target IgE (Jurkat cells [4]; [7]): low activity

SMILES: O=C(NCCCCc1cn(CCOCCOCCOCCOCCC(=O)Oc2c(F)c(F)c(F)c(F)c2F)nn1)Nc1ccc(S[C@H]2O[C@H](CCP(=O)(O)O)[C@@H](O)[C@H](O)[C@@H]2O)cc1 [Compound 552]
cellular uptake activity of Alexa488 labeled-target IgE (Jurkat cells [4]; [6]): comparable activity; also recorded: more activity when at m=6 loading versus m=4 loading
cellular uptake activity of Alexa488 labeled-target IgE (Jurkat cells [4]; [8]): comparable by less activity

IC50 (M6PR (Domains 1-9)): 100 to 500 nM
SMILES: O=C(NCCCCc1cn(-c2cccnc2)nn1)Nc1ccc(S[C@@H]2O[C@H](CCP(=O)(O)O)[C@@H](O)[C@H](O)[C@@H]2O)cc1 [Compound P3]

IC50 (M6PR (Domains 1-9)): 100 to 500 nM
SMILES: O=C(NCCCCc1cn(-c2cccnc2)nn1)Nc1ccc(S[C@H]2O[C@H](CCP(=O)(O)O)[C@@H](O)[C@H](O)[C@@H]2O)cc1 [Compound P4]

From patent US20260216345A1, “M6PR BINDING COMPOUNDS AND CONJUGATES” (Lycia Therapeutics, Inc., priority 2023, published 2026)
